In ChEMBL document CHEMBL1255197, “Surface plasmon resonance biosensor based fragment screening using acetylcholine binding protein identifies ligand efficiency hot spots (LE hot spots) by deconstruction of nicotinic acetylcholine receptor α7 ligands” (J Med Chem, 2010):
pKd, pKi: −log10 of the molar value.

Tests used:
[1] = target: T1, Acetylcholine-binding protein (Lymnaea stagnalis, UniProt P58154)
Description: Binding affinity to Lymnaea stagnalis His6-AChBP expressed in Bac-to-Bac baculovirus expression system by surface plasmon resonance biosensor assay

[2] = target: T1, Acetylcholine-binding protein; remark: listed apart in the source
Description: Displacement of [3H]epibatidine from Lymnaea stagnalis His6-AChBP expressed in Bac-to-Bac baculovirus expression system

[3] = target: Neuronal acetylcholine receptor subunit alpha-7 (Homo sapiens, UniProt P36544); experiment: biochemical
Neuronal acetylcholine receptor subunit alpha-7, sequence (P36544 whole entry): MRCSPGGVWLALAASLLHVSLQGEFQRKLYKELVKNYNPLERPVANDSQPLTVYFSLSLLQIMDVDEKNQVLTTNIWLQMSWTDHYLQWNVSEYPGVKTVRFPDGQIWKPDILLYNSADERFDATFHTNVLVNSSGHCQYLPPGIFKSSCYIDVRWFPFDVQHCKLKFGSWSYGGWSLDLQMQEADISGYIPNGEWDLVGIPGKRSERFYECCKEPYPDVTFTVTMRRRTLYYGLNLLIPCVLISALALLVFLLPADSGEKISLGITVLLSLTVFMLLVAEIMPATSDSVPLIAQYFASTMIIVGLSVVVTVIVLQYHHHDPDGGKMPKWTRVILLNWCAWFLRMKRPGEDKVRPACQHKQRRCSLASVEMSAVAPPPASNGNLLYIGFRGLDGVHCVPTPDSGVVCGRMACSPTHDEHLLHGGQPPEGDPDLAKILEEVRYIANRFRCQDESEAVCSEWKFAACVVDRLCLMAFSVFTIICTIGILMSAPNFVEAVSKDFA
Description: Displacement of [3H]-MLA from human alpha7 nAChR expressed in human SH-SY5Y cells

T1 sequence (P58154 whole entry): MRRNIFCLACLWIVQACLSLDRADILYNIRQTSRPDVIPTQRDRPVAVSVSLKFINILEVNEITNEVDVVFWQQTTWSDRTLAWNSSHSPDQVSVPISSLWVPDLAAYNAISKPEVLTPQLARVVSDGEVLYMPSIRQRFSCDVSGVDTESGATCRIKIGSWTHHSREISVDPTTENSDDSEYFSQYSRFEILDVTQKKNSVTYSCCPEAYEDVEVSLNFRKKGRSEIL

SMILES	pKd [1]	pKi [2]	pKi [3]
O=C(Nc1ccccc1)OCCCc1cccnc1	3.13	3.55	4.84
O=C(Nc1ccc(Br)cc1)OCCCc1cccnc1	4.30	< 5.00	5.16
O=C(Nc1ccccc1)O[C@H]1CN2CCC1CC2	4.53	5.10	–
O=C(Nc1ccc(Br)cc1)O[C@H]1CN2CCC1CC2	5.35	5.52	7.41
O=C(Nc1ccccc1)N[C@H]1CN2CCC1CC2	4.73	5.26	6.96
O=C(Nc1ccc(Br)cc1)N[C@H]1CN2CCC1CC2	5.31	5.29	7.36
O[C@@H]1C2CCN(CC2)[C@H]1Cc1cccnc1	6.50	6.60	5.48
N[C@@H]1C2CCN(CC2)[C@H]1Cc1cccnc1	6.26	6.33	5.64
N[C@H]1CN2CCC1CC2	4.13	3.96	5.20
NCCc1cccnc1	3.83	4.03	5.07
O=C(N[C@@H]1C2CCN(CC2)[C@H]1Cc1cccnc1)c1ccccc1	6.66	6.62	–
O=C(N[C@@H]1C2CCN(CC2)[C@H]1Cc1cccnc1)c1cccs1	6.62	6.83	7.36
O=C(Nc1ccccc1)O[C@@H]1C2CCN(CC2)[C@H]1Cc1cccnc1	7.00	7.21	7.73
O=C(Nc1ccccc1)N[C@@H]1C2CCN(CC2)[C@H]1Cc1cccnc1	6.06	6.25	7.54
O=C(Nc1ccc(Br)cc1)N[C@@H]1C2CCN(CC2)[C@H]1Cc1cccnc1	6.36	6.15	7.59
O=C(N[C@@H]1C2CCN(CC2)[C@H]1Cc1cccnc1)Oc1ccccc1	6.46	6.30	7.43
CN(C)CCc1cccnc1	5.22	5.50	5.50
O=C(N[C@@H]1C2CCN(CC2)[C@H]1Cc1cccnc1)c1cc2ccccc2o1 [BRADANICLINE]	7.70	7.84	–
O=C(N[C@H]1CN2CCC1CC2)c1ccc(Cl)cc1 [PNU-282987]	5.44	5.68	7.61
